SMILES strings stand for the structures. A value given as a limit tells only on which side of the number the result lay.

The target in this experiment is T1, human Itk kinase (Homo sapiens, UniProt Q08881).
T1 sequence (Q08881 1-620): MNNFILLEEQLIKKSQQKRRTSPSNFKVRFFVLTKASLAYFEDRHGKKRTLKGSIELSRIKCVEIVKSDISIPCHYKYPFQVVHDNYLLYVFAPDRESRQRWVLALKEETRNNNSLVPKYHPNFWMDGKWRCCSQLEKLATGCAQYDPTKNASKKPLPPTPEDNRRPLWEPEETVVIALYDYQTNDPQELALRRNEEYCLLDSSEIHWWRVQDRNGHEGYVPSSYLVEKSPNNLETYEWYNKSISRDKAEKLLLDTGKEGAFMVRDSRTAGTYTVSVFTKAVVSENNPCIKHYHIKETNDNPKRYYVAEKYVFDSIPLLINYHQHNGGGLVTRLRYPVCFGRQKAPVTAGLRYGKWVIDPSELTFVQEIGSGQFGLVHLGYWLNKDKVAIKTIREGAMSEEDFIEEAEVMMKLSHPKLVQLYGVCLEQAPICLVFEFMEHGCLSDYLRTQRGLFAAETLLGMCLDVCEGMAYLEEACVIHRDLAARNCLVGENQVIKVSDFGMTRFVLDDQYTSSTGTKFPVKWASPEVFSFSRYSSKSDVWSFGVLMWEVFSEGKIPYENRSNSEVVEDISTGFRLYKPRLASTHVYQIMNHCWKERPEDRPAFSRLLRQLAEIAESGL
Put plainly: Itk inhibition assay: radioactivity-based assay. The conditions noted are these: Ki(app). The format is biochemical. The essentials:
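50 nM Itk with 3 μM SAM68 Δ332-443 peptide and 7.5 μM [γ-33P]ATP in MOPS pH 7.0, MgCl2, 25° C; compound (top 50 μM final, 2-fold dilutions, 2% DMSO) preincubated 10 min, reaction 10 min. Phosphocellulose filter capture and scintillation counting; Ki(app) by non-linear regression of initial rates.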
For the molecule `Cc1cc(Nc2cc(N3CCC3)nc(Sc3cccc(NC(=O)c4ccccc4Cl)c3)n2)[nH]n1` [Compound 49], the Ki lay within 1000 to 2000 nM. The figure for `CCC(=O)Nc1ccc(Sc2nc(Nc3cc(C)n[nH]3)cc(N3CC(C)(NC(C)(C)C)C3)n2)cc1` [Compound 80] is 100 to 1000 nM; for `Cc1cc(Nc2cc(N3CCC3)nc(Sc3ccc4ccccc4c3)n2)n[nH]1` [Compound 25] it is 1000 to 2000 nM; for `CC1=NN=C(Nc2cc(N3CCC3)nc(Sc3ccc(NC(=O)c4ccccc4Cl)cc3)n2)C1` [Compound 5] it is 100 to 1000 nM. The figure for `Cc1cc(Nc2cc(N3CCC3)nc(Sc3ccc(NC(=O)c4ccc(Cl)cc4)cc3)n2)n[nH]1` [Compound 54] is 100 to 1000 nM; for `Cc1cc(Nc2cc(N3CCC3)nc(Sc3ccc(NC(=O)c4c(F)cccc4N4CCC4)cc3)n2)n[nH]1` [Compound 8] it is 100 to 1000 nM; for `Cc1cc(Nc2cc(N3CCC3)nc(Sc3ccc(NC(=O)c4nccn4C)cc3)n2)n[nH]1` [Compound 166] it is 1000 to 2000 nM. The figure for `CCC(=O)Nc1ccc(Sc2nc(C#CC(C)(C)N3CCC3)cc(Nc3cc(C)n[nH]3)n2)cc1` [Compound 77] is 100 to 1000 nM. As to `Cc1cnc(Nc2cc(N3CC(N)C3)nc(Sc3ccc(NC(=O)C4CC4)cc3)n2)s1` [Compound 2], the Ki fell in the range of 100 to 1000 nM. The figure for `COC1CN(c2cc(Nc3cc(C)[nH]n3)nc(Sc3ccc(NC(=O)c4ccccc4Cl)cc3)n2)C1` [Compound 12] is at most 100 nM; for `CC1=NN=C(Nc2cc(N3CCC3)nc(Sc3ccc(NC(=O)C4CCCN4C)cc3)n2)C1` (stereo not shown) [Compound 6] it is 100 to 1000 nM; for `Cc1cnc(Nc2cc(N3CC(N(C)C)C3)nc(Sc3ccc(NC(=O)C4CC4)cc3)n2)s1` [Compound 1] it is 100 to 1000 nM. The figure for `CCC(=O)Nc1ccc(Sc2nc(Nc3cc(C)n[nH]3)cc(N3CC(C)(O)C3)n2)cc1` [Compound 71] is 100 to 1000 nM; for `CC1=NN=C(Nc2cc(N3CCC3)nc(Sc3ccc(NC(=O)c4cccc(Cl)c4F)cc3)n2)C1` [Compound 61] it is at most 100 nM; for `Cc1cc(Nc2cc(N3CCC3)nc(Sc3ccc(NC(=O)c4ocnc4C)cc3)n2)n[nH]1` [Compound 167] it is 1000 to 2000 nM. On to `CCC(=O)Nc1ccc(Sc2nc(Nc3cc(C)[nH]n3)cc(N3CCC3)n2)cc1` [Compound 14], for which the Ki lay within 100 to 1000 nM.

With `Cc1cc(Nc2cc(N3CCC3)nc(Sc3ccc(NC(=O)OC(C)(C)C)cc3)n2)n[nH]1` [Compound 26], the Ki was 1000 to 2000 nM.

For `Cc1cc(Nc2cc(N3CC(C#N)C3)nc(Sc3ccc(NC(=O)c4ccccc4Cl)cc3)n2)n[nH]1` [Compound 16], the Ki is at most 100 nM. With `Cc1cc(Nc2cc(N3CCC3)nc(Sc3ccc(NC(=O)CC(F)(F)F)cc3)n2)n[nH]1` [Compound 40], the Ki was 100 to 1000 nM. The figure for `CCC(=O)Nc1ccc(Sc2nc(Nc3cc(C)n[nH]3)cc(N3CC(O)(C(C)(C)C)C3)n2)cc1` [Compound 81] is at most 100 nM; for `Cc1cc(Nc2cc(N3CCC3)nc(Sc3ccc(NC(=O)c4ccc(Cl)cc4Cl)cc3)n2)n[nH]1` [Compound 162] it is 100 to 1000 nM; for `Cc1cc(Nc2cc(N3CC(OC(C)(C)C)C3)nc(Sc3ccc(NC(=O)c4ccccc4Cl)cc3)n2)[nH]n1` [Compound 66] it is 100 to 1000 nM. The figure for `Cc1cc(Nc2cc(N3CCC3)nc(Sc3ccc(NC(=O)Cc4cccc(Cl)c4)cc3)n2)[nH]n1` [Compound 58] is 100 to 1000 nM. The figure for `Cc1cc(Nc2cc(N3CCC3)nc(Sc3ccc(NC(=O)C4CCCCC4)cc3)n2)n[nH]1` [Compound 30] is 100 to 1000 nM; for `Cc1cc(Nc2cc(N3CC(C)C3)nc(Sc3ccc(NC(=O)c4ccccc4Cl)cc3)n2)n[nH]1` [Compound 39] it is at most 100 nM.

Consider `Cc1cnc(Nc2cc(N3CC(O)C3)nc(Sc3ccc(NC(=O)C4CC4)cc3)n2)s1` [Compound 3], for which the Ki fell in the range of 100 to 1000 nM. With `Cc1cc(Nc2cc(N3CCC3)nc(Sc3ccc(NC(=O)Cc4ccccc4)cc3)n2)n[nH]1` [Compound 35], the Ki lay within 100 to 1000 nM. The figure for `Cc1cc(Nc2cc(N3CCC3)nc(Sc3ccc(N(C)C(=O)c4ccccc4F)cc3)n2)n[nH]1` [Compound 10] is 1000 to 2000 nM; for `CCC(=O)Nc1ccc(Sc2nc(Nc3cc(C)[nH]n3)cc(N3CC(O)C3)n2)cc1` [Compound 15] it is 100 to 1000 nM; for `CCC(=O)Nc1ccc(Sc2nc(Nc3cc(C4CC4)n[nH]3)cc(N3CC(C)(O)C3)n2)cc1` [Compound 76] it is at most 100 nM. The figure for `Cc1cnc(Nc2cc(N3CCC3)nc(Sc3ccc(NC(=O)C4CC4)cc3)n2)s1` [Compound 4] is 100 to 1000 nM. The figure for `Cc1cc(Nc2cc(N3CCC3)nc(Sc3ccc(NC(=O)c4ccc(F)cc4F)cc3)n2)n[nH]1` [Compound 44] is 100 to 1000 nM. For the molecule `Cc1cc(Nc2cc(N3CC(F)C3)nc(Sc3ccc(NC(=O)c4ccccc4Cl)cc3)n2)[nH]n1` [Compound 60], the Ki was at most 100 nM. The figure for `Cc1cc(Nc2cc(N3CCC3)nc(Sc3ccc(NC(=O)C4CC4)cc3)n2)n[nH]1` [Compound 17] is 100 to 1000 nM. The figure for `CCNC(=O)c1ccc(Sc2nc(Nc3cc(C)[nH]n3)cc(N3CCC3)n2)cc1` [Compound 20] is 100 to 1000 nM; for `CC1=NN=C(Nc2cc(N3CCC3)nc(Sc3ccc(NC(=O)c4cccc(C(F)(F)F)c4F)cc3)n2)C1` [Compound 55] it is 100 to 1000 nM; for `Cc1ccc(S(=O)(=O)Nc2ccc(Sc3nc(Nc4cc(C)[nH]n4)cc(N4CCC4)n3)cc2)cc1` [Compound 27] it is 1000 to 2000 nM. The figure for `Cc1ccc(C(=O)Nc2ccc(Sc3nc(Nc4cc(C)[nH]n4)cc(N4CCC4)n3)cc2)cc1` [Compound 28] is 100 to 1000 nM; for `CC1=NN=C(Nc2cc(N3CCC3)nc(Sc3ccc(NC(=O)c4ccccc4)cc3)n2)C1` [Compound 52] it is 100 to 1000 nM. As to `CCC(=O)Nc1ccc(Sc2nc(Nc3cc(C)n[nH]3)cc(N3CC(C)(C#N)C3)n2)cc1` [Compound 79], the Ki lay within 100 to 1000 nM.

For the origin of these results see patent US8637511B2, “Aminopyrimidines useful as kinase inhibitors” (Vertex Pharmaceuticals Incorporated, priority 2005, dated 2014).
